Test results from US8865894B2, “Oxazolidin-2-one compounds and uses thereof” (Novartis AG, priority 2012, dated 2014).

Target: T1, human PI3Kδ (Homo sapiens, UniProt O00329)
T1 construct: made in house
T1 sequence (O00329 2-1044 limits assumed): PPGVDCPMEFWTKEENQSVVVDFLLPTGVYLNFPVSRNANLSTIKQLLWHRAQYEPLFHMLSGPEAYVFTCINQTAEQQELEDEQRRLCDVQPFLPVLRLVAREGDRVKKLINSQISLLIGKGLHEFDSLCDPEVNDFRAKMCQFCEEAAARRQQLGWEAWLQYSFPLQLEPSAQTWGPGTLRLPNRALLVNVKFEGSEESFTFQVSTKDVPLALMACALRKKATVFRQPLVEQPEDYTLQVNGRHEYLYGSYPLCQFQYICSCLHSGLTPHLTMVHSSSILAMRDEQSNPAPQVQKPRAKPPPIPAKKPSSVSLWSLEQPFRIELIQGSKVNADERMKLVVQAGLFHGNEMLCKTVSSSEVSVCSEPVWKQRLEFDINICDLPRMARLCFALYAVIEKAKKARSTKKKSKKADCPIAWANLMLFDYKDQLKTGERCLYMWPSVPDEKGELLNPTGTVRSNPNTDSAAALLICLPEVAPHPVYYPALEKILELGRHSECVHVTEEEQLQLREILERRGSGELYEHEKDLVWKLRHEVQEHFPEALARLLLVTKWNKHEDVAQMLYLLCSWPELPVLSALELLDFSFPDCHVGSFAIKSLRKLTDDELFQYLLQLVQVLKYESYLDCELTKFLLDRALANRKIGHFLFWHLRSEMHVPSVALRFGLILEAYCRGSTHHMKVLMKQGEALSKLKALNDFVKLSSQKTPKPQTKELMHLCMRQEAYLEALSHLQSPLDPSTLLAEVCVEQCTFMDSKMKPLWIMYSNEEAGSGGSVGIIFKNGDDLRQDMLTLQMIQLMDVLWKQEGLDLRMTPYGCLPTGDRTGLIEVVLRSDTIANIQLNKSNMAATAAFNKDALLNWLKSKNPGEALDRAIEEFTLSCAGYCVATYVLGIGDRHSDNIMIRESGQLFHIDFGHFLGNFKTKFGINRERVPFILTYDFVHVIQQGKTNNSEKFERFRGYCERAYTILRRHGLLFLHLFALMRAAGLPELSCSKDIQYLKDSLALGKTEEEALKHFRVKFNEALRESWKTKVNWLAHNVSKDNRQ
Test: Biochemical PI3Kdelta (TR-FRET Adapta Universal Kinase Assay)
Conditions: mean of n measurements, read-out: PIK3d/ IC50
Experimental: Test compounds were dissolved in DMSO (10 mM) and transferred into 1.4 mL flat bottom or V-shaped Matrix tubes carrying a unique 2D matrix chip by individual Novartis compound hubs. The numbers of these chips were distinctively linked to Novartis Pharma Numbers. The stock solutions were stored at −20° C. if not used immediately. For the test procedure the vials were defrosted and identified by a scanner whereby a working sheet was generated that guided the subsequent working steps.
Compounds were either manually diluted in DMSO for individual experiments (96 wells enabling 10 cpds at 8 (single points) concentrations) as described in or prepared as described below if tested for profiling in 384-wells. This format enabled the assay of maximally 40 individual test compounds at 8 concentrations (single points) including 4 reference compounds. The dilution protocol included the production of “pre-dilution plates”, “master plates” and “assay plates”.
96 polypropylene well plates were used as pre-dilution plates. A total of 4 pre-dilution plates were prepared including 10 test compounds each on the plate positions A1-A10, one standard compound at A11 and one DMSO control at A12. Programs have been written to run these pipetting steps on the HamiltonSTAR robots.
Identical “assay plates” were then prepared by pipetting 50 nL each of compound dilutions of the “master plates” into 384-well “assay plates”. The compounds were mixed with 4.5 μL of assays components plus 4.5 μL enzyme corresponding to a 1:181 dilution enabling the final concentration of 10, 3.0, 1.0, 0.3, 0.1, 0.03, 0.01 and 0.003 μM, respectively. The preparation of the “master plates” was handled by the Matrix PlateMate Plus robot and replication of “assay plates” by the HummingBird robot.
Catalytically active human PI3Kα, PI3Kβ, PI3Kδ, and mTOR were cloned, expressed and purified as described (Maira S M, Stauffer F, Brueggen J, Furet P, Schnell C, Fritsch C, Brachmann S, Chène P, de Pover A, Schoemaker K, Fabbro D, Gabriel D, Simonen M, Murphy L, Finan P, Sellers W, García-Echeverría C (2008), Mol Cancer Ther. 7:1851-63 and Maira S M, Pecchi S, Brueggen J, Huh K, Schnell C, Fritsch C, Nagel T, Wiesmann M, Brachmann S, Dorsch M, Chène P, Schoemaker K, De Pover A, Menezes D, Fabbro D, Sellers W, García-Echeverría C, Voliva C F (2011), Mol. Cancer Ther. accepted).
The TR-FRET Adapta™ Universal Kinase Assay Kit was purchased from Invitrogen Corporation (Carlsbad/CA, USA) (Cat. No. PV5099). The kit contains the following reagents: Adapta Eu-anti-ADP Antibody (Europium labeled anti-ADP antibody in HEPES buffered saline, Cat. No. PV5097), Alexa Fluor® 647-labeled ADP tracer (Alexa Fluor® 647-labeled ADP tracer in HEPES buffered saline, Cat. No. PV5098), proprietary TR-FRET dilution buffer pH 7.5 (Cat. No. PV3574).
PIK3CD substrate Phosphatidylinositol was obtained from Invitrogen (vesicules consisting of 2 mM PI in 50 mM HEPES pH7.5; Cat. No. PV5371). PIK3CG substrate Phosphatidylinositol-4,5-bisphosphate (PIP(4,5)2 was obtained from Invitrogen (PIP2:PS large unilamellar vesicules consisting of 1 mM PIP2: 19 mM PS in 50 mM HEPES pH7.5, 3 mM MgCl2, 1 mM EGTA; Cat. No. PV5100).
Time-Resolved Fluorescence Resonance Energy Transfer (TR-FRET) is a technology based on energy transfer between two adjacent dyes, from an excited electron in one dye (the donor) to an electron of an adjacent dye (the acceptor) through resonance, then released as a photon. This energy transfer is detected by an increase in the fluorescence emission of the acceptor, and a decrease in the fluorescence emission of the donor. TR-FRET assays for protein kinases use a long-lifetime lanthanide Terbium or Europium chelates as the donor species which overcome interference from compound autofluorescence or light scatter from precipitated compounds, by introducing a delay after excitation by a flashlamp excitation source. Results are often expressed as a ratio of the intensities of the acceptor and donor fluorophores.

Compound | IC50
CC1(CO)COC(=O)N1c1cc(-c2cnc(N)nc2C(F)(F)F)nc(N2CCOCC2)n1 (racemic) [Example 3, 3-(2′-amino-2-morpholino-4′-(trifluoromethyl)-4,5′-bipyrimidin-6-yl)-4-(hydroxymethyl)-4-methyloxazolidin-2-one] | 12 nM
Nc1ncc(-c2cc(N3C(=O)O[C@@H]4[C@@H](O)CC[C@@H]43)nc(N3CCOCC3)n2)c(C(F)(F)F)n1 (racemic) [Example 22, (3aR*,6R*,6aR*)-3-(2′-Amino-2-morpholino-4′-(trifluoromethyl)-[4,5′-bipyrimidin]-6-yl)-6-hydroxyhexahydro-2H-cyclopenta[d]oxazol-2-one] | 6 nM
Nc1ncc(-c2cc(N3C(=O)OC4C(O)CCC43)nc(N3CCOCC3)n2)c(C(F)(F)F)n1 (single isomer, unassigned) [Example 22B] | 5 nM
C[C@@H](O)C[C@H]1OC(=O)N(c2cc(-c3cnc(N)nc3C(F)(F)F)nc(N3CCOCC3)n2)[C@H]1C (single isomer, unassigned) [Example 24] | 9 nM
C[C@H](O)CC1OC(=O)N(c2cc(-c3cnc(N)nc3C(F)(F)F)nc(N3CCOCC3)n2)[C@H]1C (single isomer, unassigned) [Example 25] | 7 nM
C[C@H]1COC(=O)N1c1cc(-c2cnc(N)nc2C(F)(F)F)nc(N2CCOCC2)n1 [Example 1, (S)-3-(2′-Amino-2-morpholin-4-yl-4′-trifluoromethyl-[4,5′]bipyrimidinyl-6-yl)-4-methyl-oxazolidin-2-one] | 7 nM
CC1(C)OC(=O)N(c2cc(-c3cnc(N)nc3C(F)(F)F)nc(N3CCOCC3)n2)[C@H]1CO [Example 2, (S)-3-(2′-Amino-2-morpholin-4-yl-4′-trifluoromethyl-[4,5′]bipyrimidinyl-6-yl)-4-hydroxymethyl-5,5-dimethyl-oxazolidin-2-one] | 75 nM
Nc1ncc(-c2cc(N3C(=O)O[C@H]4CCCC[C@@H]43)nc(N3CCOCC3)n2)c(C(F)(F)F)n1 [Example 4, (3aS,7aS)-3-(2′-Amino-2-morpholin-4-yl-4′-trifluoromethyl-[4,5′]bipyrimidinyl-6-yl)-hexahydro-benzooxazol-2-one] | 4 nM
COC[C@H]1COC(=O)N1c1cc(-c2cnc(N)nc2C(F)(F)F)nc(N2CCOCC2)n1 [Example 5, (S)-3-(2′-Amino-2-morpholin-4-yl-4′-trifluoromethyl-[4,5′]bipyrimidinyl-6-yl)-4-methoxymethyl-oxazolidin-2-one] | 4 nM
C[C@@H]1OC(=O)N(c2cc(-c3cnc(N)nc3C(F)(F)F)nc(N3CCOCC3)n2)[C@H]1CO [Example 6] | 11 nM

Other lines, results leading:

IC50 | Compound
12 nM | C[C@H]1C(CC(C)(C)O)OC(=O)N1c1cc(-c2cnc(N)nc2C(F)(F)F)nc(N2CCOCC2)n1 (mixture of isomers) [Example 26, (4S,5R)- and (4S,5S)-3-(2′-amino-2-morpholino-4′-(trifluoromethyl)-[4,5′-bipyrimidin]-6-yl)-5-(2-hydroxy-2-methylpropyl)-4-methyloxazolidin-2-one]
4 nM | Nc1ncc(-c2cc(N3C(=O)OC4C(O)CCC43)nc(N3CCOCC3)n2)c(C(F)(F)F)n1 (single isomer, unassigned) [Example 22A]
21 nM | [2H]C1([2H])OC([2H])([2H])C([2H])([2H])N(c2nc(-c3cnc(N)nc3C(F)(F)F)cc(N3C(=O)O[C@H](C)[C@@H]3CO)n2)C1([2H])[2H] [Example 8]
32 nM | Nc1ncc(-c2cc(N3C(=O)OC[C@@H]3CCO)nc(N3CCOCC3)n2)c(C(F)(F)F)n1 [Example 9, (S)-3-(2′-Amino-2-morpholin-4-yl-4′-trifluoromethyl-[4,5′]bipyrimidinyl-6-yl)-4-(2-hydroxy-ethyl)-oxazolidin-2-one]
12 nM | C[C@H]1OC(=O)N(c2cc(-c3cnc(N)nc3C(F)(F)F)nc(N3CCOC[C@@H]3C)n2)[C@H]1CO [Example 10, (4S,5R)-3-[2′-Amino-2-((S)-3-methyl-morpholin-4-yl)-4′-trifluoromethyl-[4,5′]bipyrimidinyl-6-yl]-4-hydroxymethyl-5-methyl-oxazolidin-2-one]
